The record followed here is patent publication US8455528B2, “Imidazole derivatives useful as inhibitors of FAAH” (Merck Sharp & Dohme Corp., priority 2008, dated 2013).

The first assay deals with T1, Human FAAH (Homo sapiens, UniProt O00519).
T1 construct: The full length FAAH was subcloned into the mammalian expression vector, pcDEF.neo; expressed in transfected cells
T1 sequence (O00519 1-579): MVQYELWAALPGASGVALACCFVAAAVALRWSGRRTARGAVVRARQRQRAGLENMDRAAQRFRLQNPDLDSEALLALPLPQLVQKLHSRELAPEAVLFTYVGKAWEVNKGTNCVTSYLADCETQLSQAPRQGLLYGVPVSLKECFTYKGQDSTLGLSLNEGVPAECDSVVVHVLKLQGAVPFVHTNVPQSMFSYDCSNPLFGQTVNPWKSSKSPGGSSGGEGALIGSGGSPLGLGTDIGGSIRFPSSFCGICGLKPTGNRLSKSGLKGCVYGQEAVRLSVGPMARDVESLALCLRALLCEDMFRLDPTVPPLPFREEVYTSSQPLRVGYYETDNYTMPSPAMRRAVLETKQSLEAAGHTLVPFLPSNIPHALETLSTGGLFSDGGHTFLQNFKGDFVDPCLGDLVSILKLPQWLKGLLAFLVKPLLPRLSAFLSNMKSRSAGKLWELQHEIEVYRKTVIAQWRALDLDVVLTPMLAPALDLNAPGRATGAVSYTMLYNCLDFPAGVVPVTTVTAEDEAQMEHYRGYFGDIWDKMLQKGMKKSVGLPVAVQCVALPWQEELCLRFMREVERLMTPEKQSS
Put plainly: Human FAAH lysate assay (CHO cell lysate, AAMCA fluorescent substrate). It counts as biochemical. The settings on record: human FAAH lysate; read-out: Human FAAH lysate assay: IC50. An excerpt:
To assist in assay development stable cell lines for human, murine and rat full length FAAH were developed. Human FAAH cDNA (Accession No: NM-001441.1) was purchased from Origene (Rockville, Md.). The full length FAAH was subcloned into the mammalian expression vector, pcDEF.neo, using XbaI and EcoRI restriction sites and used for stable cell line generation. CHO cells expressing FAAH were used to prepare either crude cell lysate or microsome fractions. To harvest cells, tissue culture media was decanted, the monolayer washed three times with Ca^++Mg^++ free PBS and cells recovered after 15 min in enzyme free dissociation media (Millipore Corp, Billerica, Mass.). Cells were collected by centrifuging at 2000 rpm for 15 min. and the cell pellet re-suspended with 50 mM HEPES (pH 7.4) containing 1 mM EDTA and the protease inhibitors aprotinin (1 mg/ml) and leupeptin (100 μM). […] The pellet containing FAAH-enriched microsomes was re-suspend in 50 mM HEPES, (pH 7,4) 1 mM EDTA, and any remaining DNA sheared by passage of material through a 23 gauge needle and aliquots of enzyme were store at -80° C. prior to use. […] (American Radiolabeled Chemicals; 1 mCi/ml) with FAAH (Life Sciences (1995), 56, 1999-2005 and Journal of Pharmacology and Experimented Therapeutics (1997), 283, 729-734), Analytical. Biochemistry (2003), 318, 270-5. […] Analytical. Biochemistry (2005). 343, 143-51 […] Fluorescent release as a measure of FAAH activity was monitored by reading the plate in a CytoFluor Multiplate Reader ([…]). Whole cell assay is conducted with cells harvested after rinsing tissue culture flasks three times with Ca^++Mg^++ free PBS, incubating for 10 min in Enzyme free dissociation media and centrifuging for 5 minutes at 1,000 rpm in table top centrifuge. Cells are resuspended in assay buffer at desired cell number in (4×10^4 cells/assay in 96-well format; 1×10^4 cells/assay in 384-well format) and assayed as described. […] The reaction was terminated by addition of 2 volumes of chloroform:methanol (1:1) and mixed by vortexing. […] K., et al. A fluorescence-based assay for fatty acid amide hydrolase compatible with high-throughput screening. Anal. Biochem. 343:143-51 (2005) • Wilson S. J., et l. A high-throughput-compatible assay for determining the activity of fatty acid amide hydrolase. Anal Biochem. 318:270-5 (2003).
On to `Cn1c(-c2ccccn2)nc(-c2ccc(-c3nccs3)cc2)c1Sc1ccc(Cl)cc1` [Example 119, 2-{5-[(4-chlorophenyl)thio]-1-methyl-4-[4-(1,3-thiazol-2-yl)phenyl]-1H-imidazol-2-yl}pyridine], for which the IC50 (commonly the concentration at which inhibition is half-maximal) came to 14.3 nM.
On the same count and under the same terms, as for `Cn1c(C2CC2)nc(-c2ccc3nc(C(F)F)ccc3c2)c1Sc1ccc(Cl)cn1` [Example 131, 6-{5-[(5-chloropyridin-2-sulfanyl]-2-cyclopropyl-1-methyl-1H-imidazol-4-yl}-2-difluoromethyl)quinoline], the figure is 17.9 nM; as for `Cn1c(-c2ccn(C3CC3)n2)nc(-c2ccc(-c3ncon3)cc2)c1Sc1ccc(Cl)cc1` [Example 144, 3-(4-{5-[(4-chlorophenyl)sulfanyl]-2-(1-cyclopropyl-1H-pyrazol-3-yl)-1-methyl-1H-imidazol-4-yl}phenyl)-1,2,4-oxadiazole], 7.4 nM.
For the compound `CC(CO)NC(=O)c1ccc(-c2nc(-c3ccccn3)n(C)c2Sc2ccc(Cl)cc2)cc1` (centres unmarked) [Example 127, 4-{5-[(4-chlorophenyl)thio]-1-methyl-2-pyridin-2-yl-1H-imidazol-4-yl}-N-(2-hydroxy-1-methylethyl)benzamide], the IC50 turned out to be 77.9 nM.
On the same count and under the same terms, then `Cn1c(-c2cccs2)nc(-c2ccc(S(C)(=O)=O)cc2)c1Sc1ccc(Cl)cc1` [Example 137, 5-[(4-chlorophenyl)sulfanyl]-1-methyl-4-[4-(methylsulfonyl)phenyl]-2-(thiophen-2-yl)-1H-imidazole], with 16.5 nM; and `CS(=O)(=O)c1ccc(-c2nc3n(c2Sc2ccc(Cl)cc2)CCC2CCCNC32)cc1` (centres unmarked) [Example 128, 3-[(4-chlorophenyl)thio]-2-[4-(methylsulfonyl)phenyl]-5,6,6a,7,8,9,10,10a-octahydroimidazo[1,2-h]-1,7-naphthyridine], with 98 nM; and `Cn1c(-c2ccccn2)nc(-c2ccc(S(C)(=O)=O)nc2)c1Sc1ccc(Cl)cn1` [Example 100, 5-Chloro-2-({1-methyl-4-[6-(methylsulfonyl)pyridin-3-yl]-2-pyridin-2-yl-1H-imidazol-5-yl}thio)pyridine], with 48 nM.
On the same count and under the same terms, as for `CCn1ccc(-c2nc(-c3ccc(-c4ncon4)cc3)c(Sc3ccc(Cl)cc3)n2C)n1` [Example 140, 3-4-({5-[(4-chlorophenyl)sulfanyl]-2-(1-ethyl-1H-pyrazol-3-yl)-1-methyl-1H-imidazol-4-yl)phenyl)-1,2,4-oxadiazole], the figure is 28.7 nM.

Staying with this assay, now noted: human FAAH lysate; read-out: hFAAH lysate IC50.
In the case of `Cn1c(-c2ccc(F)cc2)nc(-c2ccc(C(C)(C)O)nc2)c1Sc1ccc(Cl)cc1F` [Example 113], the IC50 was determined as 67.9 nM.
Still for that read-out and setting: then `Cn1c(-c2ccc(F)c(F)c2)nc(-c2ccc(C(C)(C)O)nc2)c1Sc1ccc(Cl)cc1F` [Example 112], with 114 nM.
On the same count and under the same terms, then `Cn1c(-c2ccccn2)nc(-c2ccc(S(C)(=O)=O)nc2)c1Sc1ccc(F)c(F)c1` [Example 103], with 37.6 nM; and `Cn1c(-c2nccs2)nc(-c2ccc(S(C)(=O)=O)cc2)c1Sc1ccc(Cl)cc1` [Example 138], with 24.8 nM; and `Cn1c(-c2ccc(F)c(F)c2)nc(-c2ccc(C(C)(C)O)nc2)c1Sc1ccc(Cl)cc1` [Example 114], with 87.4 nM.
Consider `Cn1c(-c2ccccn2)nc(-c2ccc(-c3ccncc3)cc2)c1Sc1ccc(Cl)cn1` [Example 118], for which the IC50 was found to be 7.7 nM.
